≈ marks a conversion by molar mass, not a printed value. Where “and” joins values, the source holds several entries; their conditions need not be identical. Equal values may be shown once. Read-outs that look alike come from different tables or passages of the source.
Columns and labels:
M. peregrinum = test: microbe, parasite or virus in culture; format: cell-based, Mycobacterium peregrinum; settings: Mycolicibacterium peregrinum
M. smegmatis = test: microbe, parasite or virus in culture; format: cell-based, Mycobacterium smegmatis; settings: Mycolicibacterium smegmatis
M. fortuitum = test: microbe, parasite or virus in culture; format: cell-based, Mycobacterium fortuitum; settings: Mycolicibacterium fortuitum
XDR M. tuberculosis [1] = format: cell-based, Mycobacterium tuberculosis
M. xenopi = test: microbe, parasite or virus in culture; format: cell-based; settings: Mycobacterium xenopi
M. bovis = test: microbe, parasite or virus in culture; format: cell-based; settings: Mycobacterium tuberculosis variant bovis
in vitro [2] = format: cell-based; settings: human
Method: A549 human pulmonary epithelial cells (KCLB 10185), human embryonic kidney (HEK) 293 cells (KCLB 21573), human THP-1 leukemia cells (KCLB 40202), human neuroblastoma SH-SY5Y cells (KCLB 22266), Murine Raw 264.7 macrophages (KCLB 40071), and L929 murine fibroblasts (KCLB 10001) were purchased from the KCLB (Seoul, Korea). Cytotoxicity testing was performed using the MTT assay and the WST-1 cell viability assay as previously described.

M. heraklionease = test: microbe, parasite or virus in culture; format: cell-based; settings: Mycobacterium
[3] = tested on: clinically isolated MDR, XDR, and TDR M. tuberculosis strains; test: microbe, parasite or virus in culture; format: cell-based; settings: Mycobacterium tuberculosis
M. kansasii = test: microbe, parasite or virus in culture; format: cell-based; settings: Mycobacterium kansasii
XDR M. tuberculosis [4] = test: Luminescence-based microbial cell viability assay; design: species or system Mycobacterium tuberculosis
M. aubagnense = test: microbe, parasite or virus in culture; format: cell-based, Mycobacterium aubagnense; settings: Mycolicibacterium aubagnense
M. kyorinense = test: microbe, parasite or virus in culture; format: cell-based; settings: Mycobacterium kyorinense
in vitro [5] = format: cell-based, murine; settings: mouse
Procedure, shortened: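 MTT and WST-1 viability read-outs; cytotoxicity testing per earlier published protocols.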

intestinal microbiome = test: Gut microbiome, 16s rRNA gene-based metagenomics analysis of feces; format: in vivo, BALB/c mice; settings: 30 mg/kg oral once a day for 7 days, BALB/c mice, feces
Method: Six-week-old BALB/c female mice were used for this study (6 mice for each group). Each drug was administered orally at 30 mg/kg once daily for 7 days. Stool was collected, and 16 rRNA gene-based metagenomics analysis was performed. Corn oil was used as the vehicle. The drug-free group received corn oil only. This animal experiment was conducted with the approval of the IACUC of the Soonchunhyang University (approval number: SCH21-0011). Microbiome analysis of collected feces was carried out as previously described with some modifications. Total DNA was extracted from the stool using the QIAamp DNA stool mini kit (Qiagen, Germany) after mechanical disruption using lysing matrix B tubes (MP Biomedicals, USA). V4 region of 16S RNA gene was amplified from extracted DNA with the following primers: forward primer ([…]) and reverse primer ([…]). PCR was performed using the Kappa HiFi hot start kit (KAPA Biosystems, USA) for 16s gene amplification and library preparation. A dsDNA HS assay kit and Qubit 4 fluorimeter (Invitrogen, USA) were used for DNA quantification. After each step, quality was checked using Agilent High Sensitivity DNA Kit and Agilent Bioanalyzer 2100 (Agilent Technologies, USA). Clean-up was performed using AMPure XP beads (Beckman Coulter, UK). The metagenomic library was prepared using a Nextera XT DNA Library Prep Kit (Illumina, USA) and loaded into an iSeq-100 reagent cartridge (Illumina, USA) together with a PhiX Control library (Illumina, USA). A 300-bp paired-end sequencing was performed on an iSeq-100 platform (Illumina, USA). Sequencing data were analyzed using the EzBioCloud server (Chunlab, Korea).

M. conceptionense = test: microbe, parasite or virus in culture; format: cell-based, Mycobacterium conceptionense; settings: Mycolicibacterium senegalense
M. massiliense = test: microbe, parasite or virus in culture; format: cell-based, Mycobacterium massiliense; settings: Mycobacteroides abscessus
M. tuberculosis H37Rv [6] = test: Luminescence-based microbial cell viability assay; design: species or system Mycobacterium tuberculosis; settings: for RLU/50ul (replicates1-3), single values / RLU/ml (×100) / RLU/50ul (average): Fig 2C
[7] = tested on: XDR M. tuberculosis (KMRC 00203–00197); format: cell-based, Mycobacterium tuberculosis
M. gilvum = test: microbe, parasite or virus in culture; format: cell-based, Mycobacterium gilvum; settings: Mycolicibacterium gilvum
M. tuberculosis H37Rv [8] = format: cell-based, Mycobacterium tuberculosis; settings: for RFU/200 μl (replicates1-3), single values / RFU/ml (×104) / RFU/200 μl (average): Fig 2A
M. marseiliense = test: microbe, parasite or virus in culture; format: cell-based; settings: Mycobacterium
M. marinum = test: microbe, parasite or virus in culture; format: cell-based; settings: Mycobacterium marinum
[9] = drug conc. 0.19, average of each replicate set
[10] = drug conc. 0.39, average of each replicate set
[11] = drug conc. 0.78, average of each replicate set

NNC(=O)c1ccncc1 [INH, isoniazid, reference compound]
MIC (M. peregrinum): 6.3 µg/mL (≈ 45.9 µM) | MIC (M. smegmatis): 25 µg/mL (≈ 182 µM) | MIC (M. fortuitum): 25 µg/mL (≈ 182 µM) | RFU/200 μl (replicates1-3), single values (XDR M. tuberculosis [1]): 29490 RFU/200 μl and 29760 RFU/200 μl and 24060 RFU/200 μl and 22090 RFU/200 μl and 22930 RFU/200 μl and 29240 RFU/200 μl and 29310 RFU/200 μl and 29280 RFU/200 μl and 29510 RFU/200 μl and 51780 RFU/200 μl and 52060 RFU/200 μl and 51260 RFU/200 μl and 49980 RFU/200 μl and 50610 RFU/200 μl and 51510 RFU/200 μl and 51660 RFU/200 μl and 51460 RFU/200 μl and 51820 RFU/200 μl and 56880 RFU/200 μl and 57100 RFU/200 μl and 53750 RFU/200 μl and 53730 RFU/200 μl and 46980 RFU/200 μl and 53520 RFU/200 μl and 53690 RFU/200 μl and 53460 RFU/200 μl and 56940 RFU/200 μl | RFU/ml (×104) (XDR M. tuberculosis [1]): 13.6 RFU/ml (×104) and 25.7 RFU/ml (×104) and 27.0 RFU/ml (×104) | antitubercular effect (XDR M. tuberculosis [1]): did not show a significant antitubercular effect | MIC (M. xenopi): 1.6 µg/mL (≈ 11.7 µM) | MIC (M. bovis): 0.2 µg/mL (≈ 1.46 µM) | CC50 (in vitro [2]; A549): > 500 µg/mL | CC50 (in vitro [2]; HEK-293): > 500 µg/mL | CC50 (in vitro [2]; SH-SY5Y): > 500 µg/mL | CC50 (in vitro [2]; THP-1): > 500 µg/mL | MIC (M. heraklionease): > 100 µg/mL | MIC ([3]; TDR-1): 12.5 µg/mL (≈ 91.1 µM) | MIC ([3]; TDR-2): 6.3 µg/mL (≈ 45.9 µM) | MIC ([3]; TDR-3): 12.5 µg/mL (≈ 91.1 µM) | MIC (M. kansasii): 0.2 µg/mL (≈ 1.46 µM) | RLU/50ul (replicates1-3), single values (XDR M. tuberculosis [4]): 190 RLU/50ul and 260 RLU/50ul (2×) and 250 RLU/50ul and 280 RLU/50ul and 160 RLU/50ul (2×) and 150 RLU/50ul and 170 RLU/50ul and 540 RLU/50ul (2×) and 630 RLU/50ul (2×) and 530 RLU/50ul and 620 RLU/50ul and 670 RLU/50ul (2×) and 580 RLU/50ul and 690 RLU/50ul and 830 RLU/50ul (2×) and 790 RLU/50ul and 800 RLU/50ul and 880 RLU/50ul and 870 RLU/50ul and 750 RLU/50ul (2×) | antitubercular effect (XDR M. tuberculosis [4]): did not show a significant antitubercular effect | MIC (M. aubagnense): > 100 µg/mL | MIC (M. kyorinense): 3.1 µg/mL (≈ 22.6 µM) | CC50 (in vitro [5]; L929): > 500 µg/mL | CC50 (in vitro [5]; Raw264.7): > 500 µg/mL | beta set-significance analysis, pair-wise comparison of gut microbiome (intestinal microbiome): not significant | difference in phylum or class level taxa compared to drug-free group (intestinal microbiome): did not significantly differ | phylogenetic diversity compared to drug-free control group (intestinal microbiome): no significant change | MIC (M. conceptionense): 25 µg/mL (≈ 182 µM) | MIC (M. massiliense): 12.5 µg/mL (≈ 91.1 µM) | RLU/50ul (replicates1-3), single values (M. tuberculosis H37Rv [6]; drug conc. 0.19): 1310 RLU/50ul and 1170 RLU/50ul and 1890 RLU/50ul and 1990 RLU/50ul and 2130 RLU/50ul and 1740 RLU/50ul and 1790 RLU/50ul and 1620 RLU/50ul and 1290 RLU/50ul | RLU/ml (×100) (M. tuberculosis H37Rv [6]; drug conc. 0.19): 331.8 RLU/ml (×100) | RLU/50ul (average) (M. tuberculosis H37Rv [6]; [9]): 2003 RLU/50ul and 1717 RLU/50ul and 1257 RLU/50ul | RLU/50ul (replicates1-3), single values (M. tuberculosis H37Rv [6]; drug conc. 0.39): 340 RLU/50ul and 310 RLU/50ul (2×) and 220 RLU/50ul and 250 RLU/50ul and 320 RLU/50ul (3×) and 360 RLU/50ul | RLU/ml (×100) (M. tuberculosis H37Rv [6]; drug conc. 0.39): 61.1 RLU/ml (×100) | RLU/50ul (average) (M. tuberculosis H37Rv [6]; [10]): 263 RLU/50ul and 317 RLU/50ul and 337 RLU/50ul | RLU/50ul (replicates1-3), single values (M. tuberculosis H37Rv [6]; drug conc. 0.78): 120 RLU/50ul (3×) and 100 RLU/50ul and 130 RLU/50ul (2×) and 180 RLU/50ul and 150 RLU/50ul and 140 RLU/50ul | RLU/ml (×100) (M. tuberculosis H37Rv [6]; drug conc. 0.78): 26.4 RLU/ml (×100) | RLU/50ul (average) (M. tuberculosis H37Rv [6]; [11]): 143 RLU/50ul and 137 RLU/50ul and 117 RLU/50ul | concentration with significant antitubercular effect (M. tuberculosis H37Rv [6]; luminescence-based assay): 0.78 µg/mL and 0.39 µg/mL | CFU (replicates1-3), single values [7]: 6900 CFU and 40600 CFU and 43800 CFU and 52100 CFU and 37500 CFU and 35600 CFU and 31700 CFU and 15100 CFU and 27000 CFU and 106000 CFU and 157000 CFU and 148000 CFU and 98000 CFU and 61800 CFU and 75500 CFU and 71000 CFU and 87000 CFU and 97000 CFU | log reduction (CFU) ([7]; at 12.5 μg/ml, 7 days): 1.0 | MIC (M. gilvum): 12.5 µg/mL (≈ 91.1 µM) | RFU/200 μl (replicates1-3), single values (M. tuberculosis H37Rv [8]; drug conc. 0.19): 54850 RFU/200 μl and 54780 RFU/200 μl and 48860 RFU/200 μl and 48850 RFU/200 μl and 51920 RFU/200 μl and 53630 RFU/200 μl and 53710 RFU/200 μl and 53510 RFU/200 μl and 54820 RFU/200 μl | RFU/ml (×104) (M. tuberculosis H37Rv [8]; drug conc. 0.19): 26.4 RFU/ml (×104) | RFU/200 μl (average) (M. tuberculosis H37Rv [8]; [9]): 49877 RFU/200 μl and 53617 RFU/200 μl and 54817 RFU/200 μl | RFU/200 μl (replicates1-3), single values (M. tuberculosis H37Rv [8]; drug conc. 0.39): 12610 RFU/200 μl and 12620 RFU/200 μl and 10050 RFU/200 μl and 11010 RFU/200 μl and 12080 RFU/200 μl and 10560 RFU/200 μl and 10740 RFU/200 μl and 10520 RFU/200 μl and 12650 RFU/200 μl | RFU/ml (×104) (M. tuberculosis H37Rv [8]; drug conc. 0.39): 5.7 RFU/ml (×104) | RFU/200 μl (average) (M. tuberculosis H37Rv [8]; [10]): 11047 RFU/200 μl and 10607 RFU/200 μl and 12627 RFU/200 μl | RFU/200 μl (replicates1-3), single values (M. tuberculosis H37Rv [8]; drug conc. 0.78): 7570 RFU/200 μl and 7470 RFU/200 μl and 7230 RFU/200 μl and 7160 RFU/200 μl and 7680 RFU/200 μl and 7340 RFU/200 μl and 7150 RFU/200 μl and 7460 RFU/200 μl and 7540 RFU/200 μl | RFU/ml (×104) (M. tuberculosis H37Rv [8]; drug conc. 0.78): 3.7 RFU/ml (×104) | RFU/200 μl (average) (M. tuberculosis H37Rv [8]; [11]): 7357 RFU/200 μl and 7317 RFU/200 μl and 7527 RFU/200 μl | concentration with significant antitubercular effect (M. tuberculosis H37Rv [8]; fluorescence-based assay): 0.78 µg/mL and 0.39 µg/mL | MIC (M. marseiliense): > 100 µg/mL | MIC (M. marinum): 25 µg/mL (≈ 182 µM)
